Reference: patent publication US8058437B2, “(Pyrroloquinoxalinyl) pyrazinecarbohydrazide-oxalic acid co-crystal for treatment of cancer and other diseases” (Novelix Pharmaceuticals, Inc., priority 2008, dated 2011)
Read-outs that look alike come from different tables or passages of the source.

Assay: Pharmacokinetic experiments in rats (IV, oral suspension, oral solution)
Type: in vivo
Details: male, rat, plasma; for bioavailability: adjusted for dose, read-out: Bioavailability
Description: The oral suspension formulation was prepared by suspending the test article in 5% PEG-200/95% of a 0.5% solution of methylcellulose. The concentration of the test article was such that a dosing volume of 10 mL/kg delivered the intended dose level. The oral solution formulations of NVX-144 and NVX-412 were prepared by dissolving the test article in 10% by volume dimethyl acetamide, followed by 60% by volume PEG-400, and then adding slowly a solution of 30% Captisol® in 50 mM lactic acid to provide the remaining 30% of volume. The concentration of the test article was such that a dosing volume of 10 mL/kg delivered the intended dose level. The IV formulation of NVX-412 was prepared by dissolving the test article in 10% by volume dimethyl acetamide, followed by 10% by volume PEG-400, and then adding slowly a solution of 10% Captisol® in 50 mM lactic acid to provide the remaining 80% of volume. The concentration of the test articles was such that a dosing volume of 2.5 mL/kg delivered the intended dose level. The doses administered were based on the body weight of each animal taken shortly before dosing. The formulations were used immediately after preparation.
A total of 15 rats were assigned to the study. Five groups of three male rats each comprised the study. Each group was treated once by oral gavage or intravenous injection via the tail vein as specified in Table 3 below.
The animals were fasted overnight prior to dosing and the feed returned approximately 2 hours post-dosing. The dose for each animal was based on the most recent body weight. Oral doses were administered by gavage. Animals received 10 mL/kg per single oral dose. Intravenous doses were administered by tail vein injection. The dose for each animal was based on the most recent body weight. Animals were dosed at 2.5 mL/kg per single intravenous dose.
Blood was collected from the animals in Groups 1 through 5 for pharmacokinetic analysis. Approximately 0.3 mL of blood was collected in potassium EDTA tubes via the orbital plexus at four time points (30 minutes, 1 hour, 4 hours, and 8 hours post-dose) from each rat treated by the oral route, and the blood samples were processed to prepare plasma. Blood was collected at four time points (5 minutes, 30 minutes, 1 hour, and 2 hours post-dose) from each rat treated by the intravenous route, and the blood samples were processed to prepare plasma. Animals were terminated (without necropsy) following their final sample collection.
The whole blood samples were centrifuged (˜1500×g) for a minimum of 10 minutes in a refrigerated centrifuge (set at ˜5° C.). Plasma was prepared and transferred within 30 minutes of blood collection/centrifugation to appropriately labeled tubes. The tubes were then frozen and stored in the dark at ≦−70° C. until analysis. The plasma samples were analyzed by LC-MS/MS to determine the plasma concentrations of NVX-144 and NVX-412. Pharmacokinetic analysis of the plasma concentration data was conducted using non-compartmental analysis with WinNonlin Version 4.1.

[1] = iv, 5 mg/kg, IV 5 mg/kg, Mean of 3
[2] = iv, 5 mg/kg, IV 5 mg/kg, individual animals
[3] = oral, 20 mg/kg, Group 5, PO-Solution 20 mg/kg, Mean
[4] = po, 20 mg/kg, Group 3, PO-Suspension 20 mg/kg, individual animals
[5] = po, 20 mg/kg, Group 5, PO-Solution 20 mg/kg, Mean N=3

O=C(NNc1nc2cc(F)ccc2n2cccc12)c1cnccn1.O=C(O)C(=O)O [NVX-412, N′-(7-fluoropyrrolo[1,2a]quinoxalin-4-yl)pyrazine-2-carbohydrazide oxalic acid co-crystal]
concentration at 0.083 h [1]: 1.84 µg/mL
concentration at 0.083 h [2]: 1.81 µg/mL
concentration at 0.5 h (iv, 5 mg/kg, IV 5 mg/kg, 0.5 h, Mean of 3): 0.477 µg/mL
concentration at 0.5 h (iv, 5 mg/kg, IV 5 mg/kg, 0.5 h, individual animals): 0.488 µg/mL
concentration at 1 h (iv, 5 mg/kg, IV 5 mg/kg, 1 h, Mean of 3): 0.273 µg/mL
concentration at 1 h (iv, 5 mg/kg, IV 5 mg/kg, 1 h, individual animals): 0.288 µg/mL
concentration at 2 h [1]: 0.165 µg/mL
concentration at 2 h [2]: 0.167 µg/mL
AUC [1]: 1.07 µg·h/mL
AUC(0-inf) [1]: 1.31 µg·h/mL
clearance [1]: 3.81 L/h/kg
Cmax (iv, 5 mg/kg, IV 5 mg/kg, Mean of 3, read-out: Cmax): 1.84 µg/mL
half-life (iv, 5 mg/kg, IV 5 mg/kg, Mean of 3, read-out: T ½ (converted)): 1 h
Tmax (iv, 5 mg/kg, IV 5 mg/kg, Mean of 3, read-out: Tmax): 0.083 h
Vd (iv, 5 mg/kg, IV 5 mg/kg, Mean of 3, read-out: Vss): 3.98 L/kg
AUC [2]: 1.07 µg·h/mL
AUC(0-inf) [2]: 1.32 µg·h/mL
clearance [2]: 3.8 L/h/kg
Cmax (iv, 5 mg/kg, IV 5 mg/kg, individual animals, read-out: Cmax): 1.81 µg/mL
half-life (iv, 5 mg/kg, IV 5 mg/kg, individual animals, read-out: T ½ (converted)): 1.01 h
Tmax (iv, 5 mg/kg, IV 5 mg/kg, individual animals, read-out: Tmax): 0.08 h
Vd (iv, 5 mg/kg, IV 5 mg/kg, individual animals, read-out: Vss): 3.96 L/kg
half-life (iv, 5 mg/kg, administered intravenously, range over animals, read-out: terminal plasma half-life): 0.93 to 1.15 h
concentration at 0.5 h (oral, 20 mg/kg, Group 3, PO-Suspension 20 mg/kg, 0.5 hr, Mean): 0.487 µg/mL
concentration at 0.5 h (oral, 20 mg/kg, Group 3, PO-Suspension 20 mg/kg, 0.5 hr, individual animals): 0.499 µg/mL
concentration at 1 h (oral, 20 mg/kg, Group 3, PO-Suspension 20 mg/kg, 1 hr, Mean): 0.525 µg/mL
concentration at 1 h (oral, 20 mg/kg, Group 3, PO-Suspension 20 mg/kg, 1 hr, individual animals): 0.525 µg/mL
concentration at 4 h (oral, 20 mg/kg, Group 3, PO-Suspension 20 mg/kg, Mean): 0.257 µg/mL
concentration at 4 h (oral, 20 mg/kg, Group 3, PO-Suspension 20 mg/kg, individual animals): 0.341 µg/mL
concentration at 8 h (oral, 20 mg/kg, Group 3, PO-Suspension 20 mg/kg, Mean, only 2 replicates available): 0.00927 µg/mL
concentration at 0.5 h (oral, 20 mg/kg, Group 5, PO-Solution 20 mg/kg, 0.5 hr, Mean): 0.626 µg/mL
concentration at 0.5 h (oral, 20 mg/kg, Group 5, PO-Solution 20 mg/kg, 0.5 hr, individual animals): 0.732 µg/mL
concentration at 1 h (oral, 20 mg/kg, Group 5, PO-Solution 20 mg/kg, 1 hr, Mean): 0.601 µg/mL
concentration at 1 h (oral, 20 mg/kg, Group 5, PO-Solution 20 mg/kg, 1 hr, individual animals): 0.628 µg/mL
concentration at 4 h [3]: 0.243 µg/mL
concentration at 4 h (oral, 20 mg/kg, Group 5, PO-Solution 20 mg/kg, individual animals): 0.259 µg/mL
concentration at 8 h [3]: 0.0162 µg/mL
AUC(0-inf) (po, 20 mg/kg, Group 3, PO-Suspension 20 mg/kg, Mean N=2): 2.31 µg·h/mL
half-life (po, 20 mg/kg, Group 3, PO-Suspension 20 mg/kg, Mean N=2, read-out: T ½ (converted)): 1.2 h
bioavailability (po, 20 mg/kg, Group 3, PO-Suspension 20 mg/kg, Mean N=2, versus mean IV AUCINF): 43.9%
AUC (po, 20 mg/kg, Group 3, PO-Suspension 20 mg/kg, Mean N=3): 2.07 µg·h/mL
Cmax (po, 20 mg/kg, Group 3, PO-Suspension 20 mg/kg, Mean N=3, read-out: Cmax): 0.525 µg/mL
Tmax (po, 20 mg/kg, Group 3, PO-Suspension 20 mg/kg, Mean N=3, read-out: Tmax): 1 h
AUC [4]: 2.39 µg·h/mL
AUC(0-inf) [4]: 2.41 µg·h/mL
Cmax (po, 20 mg/kg, Group 3, PO-Suspension 20 mg/kg, individual animals, read-out: Cmax): 0.525 µg/mL
half-life (po, 20 mg/kg, Group 3, PO-Suspension 20 mg/kg, individual animals, read-out: T ½ (converted)): 1.28 h
Tmax (po, 20 mg/kg, Group 3, PO-Suspension 20 mg/kg, individual animals, read-out: Tmax): 1 h
bioavailability (po, 20 mg/kg, Group 3, PO-Suspension 20 mg/kg, individual animals, versus mean IV AUCINF): 45.9%
AUC [5]: 2.25 µg·h/mL
AUC(0-inf) [5]: 2.29 µg·h/mL
Cmax (po, 20 mg/kg, Group 5, PO-Solution 20 mg/kg, Mean N=3, read-out: Cmax): 0.643 µg/mL
half-life (po, 20 mg/kg, Group 5, PO-Solution 20 mg/kg, Mean N=3, read-out: T ½ (converted)): 1.4 h
Tmax (po, 20 mg/kg, Group 5, PO-Solution 20 mg/kg, Mean N=3, read-out: Tmax): 0.67 h
bioavailability (po, 20 mg/kg, Group 5, PO-Solution 20 mg/kg, Mean N=3, versus mean IV AUCINF): 43.5%
